In publication PMC4324634, “Bioprospecting the American Alligator (Alligator mississippiensis) Host Defense Peptidome” (PLoS ONE, 2015) one finds EC50 data, which are given here for seven compounds.

Read-outs that look alike come from different tables or passages of the source. Where no end group is shown, it is not given here.

In assay [1] the test system is Bacillus cereus (ATCC 11778). As for the experimental part:
(§1) The third step in the CAMP-discovery process is the evaluation of the antimicrobial effectiveness of the newly identified peptides. The eight synthetic peptides were tested against a panel of Gram-positive and Gram-negative bacteria. These bacteria include Bacillus cereus, Staphylococcus aureus, Escherichia coli, and Pseudomonas aeruginosa. […] When incubated with live metabolically-active cells, the non-fluorescent blue dye resazurin is converted to the highly fluorescent pink resorufin, as a result of reduction by the cells. While bacteria can reduce resazurin via multiple metabolic processes, the rate of conversion and the corresponding increase in fluorescence are directly proportional to the number of living cells in the sample [19–21, 25]. Thus, fluorometric detection of the rate of resazurin conversion to resorufin at 530ex/590em allows for quantification of bacterial survival following exposure to antibacterial compounds, such as CAMPs.
(§2) Escherichia coli (ATCC 25922), Bacillus cereus (ATCC 11778), Pseudomonas aeruginosa (ATCC 9027), and Staphylococcus aureus (ATCC 25923) used in these studies were purchased from the American Type Culture Collection (Manassas, VA). Bacteria were grown following ATCC recommended protocols for each strain and frozen aliquots were prepared in 20% glycerol and stored at -80°C for further use.
(§3) Frozen enumerated bacterial aliquots were thawed on ice and mixed. For each strain, bacteria are diluted to 2 × 10^6 CFU/mL in sterile 10 mM sodium phosphate (pH 7.4) and added in 50 µL aliquots to the wells of a 96-well black microtiter plate (Greiner Bio-One 655201) containing 50 µL volumes of serially diluted CAMP, dissolved in the same phosphate buffer. Control wells contain bacteria with no peptide. The microtiter plate was incubated for 3 hours at 30°C (B. cereus) or 37°C for other strains. After three hours, 100 µL of PBS solution with dissolved resazurin and MHB was added to each well. The amount of resazurin and MHB that was added is bacterial strain dependent, with the final resazurin (µM)/ MHB (wt/vol) concentrations being 100 µM/ 0.2% (wt/vol) for E. coli, 12.5 µM/ 0.05% (wt/vol) for B. cereus, 25 µM/ 2.2% (wt/vol) for P. aerugoinsa, and 50 µM/ 2.2% (wt/vol) for S. aureus. The metabolic conversion of resazurin to resorufin is bacterial strain dependent and requires concentrations optimized for each species to achieve a high-throughput assessment. Following addition of resazurin/MHB buffer, the plate was immediately placed in either a SpectraMax Gemini EM plate-reading fluorimeter (E. coli and B. cereus) or a TeCan Safire 2 fluorimeter (S. aureus and P. aeruginosa) for incubation overnight at either 30°C (B. cereus) or 37°C (other strains) while monitoring fluorescence for each well.
(§4) Fluorescence data was collected from each well during the monitoring period using equations compiled by microplate data software (SoftMax Pro 4.5 or Magellen 6). Onset time of half maximal fluorescence (T0.5) was used for quantifying bacterial concentrations. Standard curves were generated in preliminary experiments using serially diluted bacterial suspensions (~10^6 CFU/mL- 10^3 CFU/mL) without CAMPs. […] Correlating bacterial CFU values for wells containing peptide with control wells containing no CAMPs it is possible to determine bacterial survival for wells containing CAMPs.

The test system of assay [2] is Escherichia coli (ATCC 25922). As for the experimental part: as §1, §2, §3, §4
The test system of assay [3] is Pseudomonas aeruginosa (ATCC 9027). As to the method:
as §1, §2, §3, §4

Assay [4] has as its system Staphylococcus aureus (ATCC 25923). As to the method:
as §1, §2, §3, §4

Turning to `CC[C@H](C)[C@H](NC(=O)[C@H](CCCCN)NC(=O)[C@H](CCC(=O)O)NC(=O)[C@H](CCCCN)NC(=O)[C@H](CO)NC(=O)[C@H](CCCCN)NC(=O)[C@H](CCCNC(=N)N)NC(=O)[C@H](Cc1ccccc1)NC(=O)[C@H](Cc1ccccc1)NC(=O)[C@H](CC(=O)O)NC(=O)CNC(=O)[C@H](CC(C)C)NC(=O)[C@@H](N)CC(C)C)C(=O)NCC(=O)N[C@@H](CCCCN)C(=O)N[C@@H](CCC(=O)O)C(=O)N[C@@H](Cc1ccccc1)C(=O)N[C@@H](CCCCN)C(=O)N[C@@H](CCCNC(=N)N)C(=O)N[C@H](C(=O)N[C@H](C(=O)N[C@@H](CCC(N)=O)C(=O)N[C@@H](CCCNC(=N)N)C(=O)N[C@H](C(=O)N[C@@H](CCCCN)C(=O)N[C@@H](CC(=O)O)C(=O)N[C@@H](Cc1ccccc1)C(=O)N[C@@H](CC(C)C)C(=O)N[C@@H](CCCNC(=N)N)C(=O)N[C@@H](CC(N)=O)C(=O)N[C@@H](CC(C)C)C(=O)N[C@H](C(=O)N1CCC[C@H]1C(=O)N[C@@H](CCCNC(=N)N)C(=O)N[C@H](C(=O)N[C@@H](CCC(=O)O)C(=O)N[C@@H](CO)C(=O)O)[C@@H](C)O)C(C)C)[C@@H](C)CC)C(C)C)[C@@H](C)CC` [LL-37, reference compound], the EC50 (as a rule, the midpoint of the concentration-response curve) was found to be 0.0287 µM in assay [1] (read-out: B. cereus EC50, B. cereus ATCC 11778, 2 × 10^6 CFU/mL stock mixed 1:1 with peptide in 10 mM sodium phosphate pH 7.4, 3 h at 30°C, resazurin fluorescence read-out (T0.5), triplicate, variable-slope sigmoidal fit); 0.00821 µM in assay [2] (read-out: E. coli EC50, E. coli ATCC 25922, 2 × 10^6 CFU/mL stock mixed 1:1 with peptide in 10 mM sodium phosphate pH 7.4, 3 h at 37°C, resazurin fluorescence read-out (T0.5), triplicate, variable-slope sigmoidal fit); 0.525 µM in assay [3] (read-out: P. aeruginosa EC50, P. aeruginosa ATCC 9027, 2 × 10^6 CFU/mL stock mixed 1:1 with peptide in 10 mM sodium phosphate pH 7.4, 3 h at 37°C, resazurin fluorescence read-out (T0.5), triplicate, variable-slope sigmoidal fit); 0.552 µM in assay [4] (read-out: S. aureus EC50, S. aureus ATCC 25923, 2 × 10^6 CFU/mL stock mixed 1:1 with peptide in 10 mM sodium phosphate pH 7.4, 3 h at 37°C, resazurin fluorescence read-out (T0.5), triplicate, variable-slope sigmoidal fit).
In the case of FSTKTRNWFSEHFKKVKEKLKDTFA [APOC1_64–88], the EC50 in assay [1] (ATCC 11778, 3 h, pH 7.4) stood at 0.245 µM; in assay [2] (ATCC 25922, 3 h, pH 7.4) it was 0.192 µM; in assay [3] (ATCC 9027, 3 h, pH 7.4) it was 1.41 µM; in assay [4] (ATCC 25923, 3 h, pH 7.4), 9.66 µM.
For KKTSMKIIPFTRL [FGG401–413] the same measures were 18.7 µM, 0.245 µM, 11.1 µM and 31.8 µM.
In the case of KTRNWFSEHFKKVKEKLKDTFA [APOC1_67–88], the EC50 is 0.21 µM in assay [1] (ATCC 11778, 3 h, pH 7.4); 0.151 µM in assay [2] (ATCC 25922, 3 h, pH 7.4); 0.948 µM in assay [3] (ATCC 9027, 3 h, pH 7.4); 7.08 µM in assay [4] (ATCC 25923, 3 h, pH 7.4).
PPGASPRKKPRKQ [ASAP130LP] gave an EC50 in assay [4] (ATCC 25923, 3 h, pH 7.4) of 101 µM.
Compound VERIPLVRFKSIKKQLHERGDL [NOTS17–38] had an EC50 in assay [4] (ATCC 25923, 3 h, pH 7.4) of 198 µM.
Consider YSLKKTSMKIIPFTRL [FGG398–413], for which the EC50 in assay [1] (ATCC 11778, 3 h, pH 7.4) turned out to be 9.35 µM; in assay [2] (ATCC 25922, 3 h, pH 7.4), 0.332 µM; in assay [3] (ATCC 9027, 3 h, pH 7.4), 7.02 µM; in assay [4] (ATCC 25923, 3 h, pH 7.4), 2.84 µM.
